Holding throughout (format): cell-based
The subject of series [1] is human retinal pigment epithelial cells ARPE-19. The experiment in a line: Cytotoxicity on human retinal pigment epithelial cells ARPE-19 (MTT). Particulars: ARPE-19, 12.5˜100 μmol/L, 24 h. The method, then:
ARPE-19 cells (purchased from Guangzhou Jinnuo Biotechnology Co., Ltd., China) were seeded into RPMI-1640 low-glucose cell culture medium containing 10% fetal bovine serum and 1% dual-antibiotics (penicillin-streptomycin) (culture medium containing 2 g/L D-glucose, 0.3 g/L L-glutamine and 2 g/L sodium bicarbonate), and the medium was replaced once every 3 days for future use.
Cells at exponential growth phase were used, and 100 μl of complete medium was added to each well to reach a concentration of 1×10^4 cells/mL. Then the cells were cultured in a humidified atmosphere at 37° C. and 5% CO2 for 24 h. After the cells fully adhered, luteolin-7-O-glucoside and luteolin-7-O-glucuronide with final concentrations of 12.5 μmol/L, 25 μmol/L, 50 μmol/L, and 100 μmol/L were added respectively, and cultured for 24 h.
The cell viability was determined by the 3-(4,5-dimethyl-2-thiazolyl)-2,5-diphenyl-2-H-tetrazolium […] (MTT) method: 20 μl of 5 mg/ml MTT was added to each well, and the cells were cultured in a CO2 incubator for 4 h, with all operations shielded from light. […] The absorbance of ARPE-19 cells was measured with a microplate reader at 490 nm, and the cell survival rate was calculated as follows: cell survival rate=(OD value of experimental group−OD value of blank group)/(OD of control group−OD of blank group)×100%.

The test system is the same in series [2]. The experiment in a line: Intracellular ROS content by DHE staining in blue light-damaged ARPE-19 cells. As to conditions: A2E + blue light, vs model group. The method, then:
A single layer of ARPE-19 cells were seeded and cultured in a 24-well plate with a cell concentration of 5×10^4 cells/well. After treatment as described in Example 2, the cells were washed twice with PBS and reactive oxygen species (ROS) fluorescent probe dihydroethidium (DHE) staining solution with a concentration of 20 μmol/L was added, and the cells were incubated at 37° C. for 20 min. Then, the cells were washed twice with PBS to fully remove the DHE probe that had not entered the cell, and then imaging was performed under an inverted microscope with an excitation wavelength of 540 nm and an emission wavelength of 590 nm.

Series [3] shares this test system. The experiment in a line: Hoechst 33342 nuclear staining (apoptosis) in blue light-damaged ARPE-19 cells. As to conditions: A2E + blue light, vs model group. The method, then: The cells were seeded in a 24-well plate (5×10^4 cells/well), and after the treatment as previously described, the fix solution was added and incubated for 30 min. Then the cells were washed three times with PBS, added with live cell staining solution (Hoechst 33342) with a concentration of 20 μg/mL, and incubated for 15 min at room temperature shielded from light. After the cells were washed with PBS, imaging was performed under an inverted fluorescence microscope with an excitation wavelength of 365 nm and an emission wavelength of 460 nm.

The test system is the same in series [4]. The experiment in a line: Blue light-induced damage to A2E-pretreated ARPE-19 cells, cell survival (MTT). Particulars: 12.5˜50 μmol/L. The method, then: ARPE-19 cells were seeded into RPMI-1640 low-glucose cell culture medium containing 10% fetal bovine serum and 1% dual-antibiotics (penicillin-streptomycin), and the medium was replaced once every 3 days for future use.
Cells at exponential growth phase were used, and cells at 500 μl/well were seeded to a 24-well cell culture plate at a concentration of 5×10^4 cells/mL, and cultured in a humidified atmosphere at 37° C. and 5% CO2. After the cells fully adhered, the medium was replaced with the DMEM culture medium containing 25 μmol/L N-retinylidene-N-retinyl ethanolamine (A2E) for 2 hours of culture. Then, the supernatant was discarded, and the cells were washed 3 times with PBS, added with the luteolin-7-O-glucoside and luteolin-7-O-glucuronide with final concentrations of 12.5 μmol/L, 25 μmol/L, and […] respectively for 6 h of continuous culture, and then placed in a blue light device (50W LED blue light board with a blue light intensity of 3230˜3540 Lux) for 4 h of irradiation. After the light irradiation, the cells were placed in a 37° C. and 5% CO2 incubator again and continued to incubate for 24 h. […] The OD values were measured with a multi-well microplate reader at 490 nm, and the cell survival rate was calculated as follows: cell survival rate=(OD value of experimental group−OD value of blank group)/(OD of control group−OD of blank group)×100%. […]

As for `O=c1cc(-c2ccc(O)c(O)c2)oc2cc(O[C@@H]3O[C@H](CO)[C@@H](O)[C@H](O)[C@H]3O)cc(O)c12` [luteolin-7-O-glucoside], in series [1], the “cytotoxicity on ARPE-19 (in words)” value is on record as “no cytotoxicity”. For the same molecule, in series [2], the “intracellular fluorescence intensity (ROS content, DHE staining)” value is on record as “decreased significantly as the dose increased”. Moreover, the “cell status / nuclear condensation (Hoechst 33342, apoptosis)” value in series [3] is “the cell status had obviously improved”. Further, the “concentration dependence of the cell survival rate (in words)” value in series [4] is listed as “concentration-dependent”.

As to `O=C(O)[C@H]1O[C@@H](Oc2cc(O)c3c(=O)cc(-c4ccc(O)c(O)c4)oc3c2)[C@H](O)[C@@H](O)[C@@H]1O` [luteolin-7-O-glucuronide], the “cytotoxicity on ARPE-19 (in words)” value in series [1] is “no cytotoxicity”. For the same molecule, the “concentration dependence of the cell survival rate (in words)” value in series [4] is given as “concentration-dependent”.

Values taken from US12383573B2, “Use of luteolin-7-O-glucoside or luteolin-7-O-glucuronide in preparation of medicine for eye injuries” (BEIJING CHENGYI INVESTMENT CO., LTD., priority 2019, dated 2025).
